Legend:
[1] = system: Human Peripheral Blood Mononuclear Cells (PBMC); assay: PBMC cell assay (IL-1β assay with human PBMC, LPS stimulated, ELISA); type: cell-based; settings: LPS 5 ng/ml, 16-18 hr
From the text: IL-L1β Assay with a Mixed Population of Human Peripheral Blood Mononuclear Cells (PBMC) or Enriched Adherent Mononuclear Cells
Processing of pre-IL-1β by ICE can be measured in cell culture using a variety of cell sources. Human PBMC obtained from healthy donors provides a mixed population of lymphocyte subtypes and mononuclear cells that produce a spectrum of interleukins and cytokines in response to many classes of physiological stimulators. Adherent mononuclear cells from PBMC provides an enriched source of normal monocytes for selective studies of cytokine production by activated cells.
An initial dilution series of test compound in DMSO or ethanol is prepared, with a subsequent dilution into RPMI-10% FBS media (containing 2 mM L-glutamine, 10 mM HEPES, 50 U and 50 ug/ml pen/strep) respectively to yield drugs at 4× the final test concentration containing 0.4% DMSO or 0.4% ethanol. The final concentration of DMSO is 0.1% for all drug dilutions. A concentration titration which brackets the apparent Ki for a test compound determined in an ICE inhibition assay is generally used for the primary compound screen.
Generally 5-6 compound dilutions are tested and the cellular component of the assay is performed in duplicate, with duplicate ELISA determinations on each cell culture supernatant.
Buffy coat cells isolated from one pint human blood (yielding 40-45 ml final volume plasma plus cells) are diluted with media to 80 ml and LeukoPREP separation tubes (Becton Dickinson) are each overlaid with 10 ml of cell suspension. After 15 min centrifugation at 1500-1800 xg, the plasma/media layer is aspirated and then the mononuclear cell layer is collected with a Pasteur pipette and transferred to a 15 ml conical centrifuge tube (Corning). […] The PBMC pellet is resuspended in a small volume of media, the cells are counted and adjusted to 6×10^6 cells/ml. […]
The skilled practitioner realizes that values obtained in cell assays, such as those described herein, can depend on multiple factors. The values may not necessarily represent fine quantitative results.

[2] = system: Human whole blood; assay: Whole blood assay for IL-1β production; type: cell-based; settings: 16-18 hr
Protocol: Whole Blood Assay for IL-1β Production
The whole blood assay is a simple method for measuring the production of IL-1β (or other cytokines) and the activity of potential inhibitors. The complexity of this assay system, with its full complement of lymphoid and inflammatory cell types, spectrum of plasma proteins and red blood cells is an ideal in vitro representation of human in vivo physiologic conditions.
Set incubator or water bath at 30° C. Aliquot 0.25 ml of blood into 1.5 ml eppendorf tubes, making sure to invert the whole blood sample tubes after every two aliquots. Differences in replicates may result if the cells sediment and are not uniformly suspended. Use of a positive displacement pipette will also minimize differences between replicate aliquots.
Prepare drug dilutions in sterile pyrogen-free saline by serial dilution. A dilution series which brackets the apparent Ki for a test compound determined in an ICE inhibition assay is generally used for the primary compound screen. For extremely hydrophobic compounds, prepare compound dilutions in fresh plasma obtained from the same blood donor or in PBS-containing 5% DMSO to enhance solubility.
Add 25 μl test compound dilution or vehicle control and gently mix the sample. Then add 5.0 μl LPS solution (250 ng/ml stocked prepared fresh: 5.0 ng/ml final concentration LPS), and mix again. Incubate the tubes at […] in a water bath for 16-18 hr with occasional mixing. Alternatively, the tubes can be placed in a rotator set at 4 rpm for the same incubation period. This assay should be set up in duplicate or triplicate with the following controls: negative control—no LPS; positive control—no test inhibitor; vehicle control—the highest concentration of DMSO or compound solvent used in the experiment. Additional saline is added to all control tubes to normalize volumes for both control and experimental whole blood test samples.
After the incubation period, whole blood samples are centrifuged for 10 minutes at ˜2000 rpm in the microfuge, plasma is transferred to a fresh microfuge tube and centrifuged at 1000×g to pellet residual platelets if necessary. Plasma samples may be stored frozen at −70° C. prior to assay for cytokine levels by ELISA.
R & D Systems (614 McKinley Place N.E. Minneapolis, Minn. 55413) Quantikine kits may be used for measurement of IL-1β and TNF-α. The assays are performed according to the manufacturer's directions. IL-1β levels of ˜1-5 ng/ml in positive controls among a range of individuals may be observed. A 1:200 dilution of plasma for all samples is usually sufficient for experiments for ELISA results to fall on the linear range of the ELISA standard curves. It may be necessary to optimize standard dilutions if you observe differences in the whole blood assay. Nerad, J. L. et al., J. Leukocyte Biol., 52, pp. 687-692 (1992).

[3] = Table 4, mature IL-1β in supernatant

O=C[C@H](CC(=O)O)NC(=O)CN1C(=O)C(NC(=O)OCc2ccccc2)N=C(c2ccccc2)c2ccccc21 (stereo partly drawn) [Example 1, (3S)-3-[3(R,S)-1,3-Dihydro-2-oxo-5-phenyl((benzyloxycarbonyl)amino)-2H-1,4-benzodiazepin-1-acetylamino]-4-oxobutyric acid]
IC50 ([1]; Table 2, mature IL-1β in supernatant): 20 µM

Nc1c(Cl)cc(C(=O)NC2N=C(c3ccccc3)c3ccccc3N(CC(=O)N[C@H](C=O)CC(=O)O)C2=O)cc1Cl (some centres unmarked) [Example 7]
IC50 ([2]; Table 2, LPS 5.0 ng/ml): > 20 µM

O=C[C@H](CC(=O)O)NC(=O)CN1C(=O)C(NC(=O)c2nccc3ccccc23)N=C(c2ccccc2)c2ccccc21 (some centres unmarked) [Example 11]
IC50 ([2]; Table 4, LPS 5.0 ng/ml): 9 µM

Nc1ccc(C(=O)NC2N=C(c3ccccc3)c3ccccc3N(CC(=O)N[C@H](C=O)CC(=O)O)C2=O)cc1Cl (some centres unmarked) [Example 18]
IC50 ([2]; Table 2, LPS 5.0 ng/ml): > 20 µM

Cc1cc(C(=O)NC2N=C(c3ccccc3)c3ccccc3N(CC(=O)N[C@H](C=O)CC(=O)O)C2=O)cc(C)c1O (some centres unmarked) [Example 19]
IC50 ([2]; Table 2, LPS 5.0 ng/ml): 10 µM

O=C[C@H](CC(=O)O)NC(=O)CN1C(=O)C(NC(=O)c2cc(Cl)c(O)c(Cl)c2)N=C(c2ccccc2)c2ccccc21 (some centres unmarked) [Example 21]
IC50 ([2]; Table 2, LPS 5.0 ng/ml): 10 µM

COc1ccc(Cl)cc1S(=O)(=O)NC1N=C(c2ccccc2)c2ccccc2N(CC(=O)N[C@H](C=O)CC(=O)O)C1=O (some centres unmarked) [Example 39]
IC50 ([2]; Table 4, LPS 5.0 ng/ml): > 20 µM

COc1cccc(OC)c1C(=O)C(=O)NC1N=C(c2ccccc2)c2ccccc2N(CC(=O)N[C@H](C=O)CC(=O)O)C1=O (some centres unmarked) [Example 49]
IC50 [1, 3]: > 8 µM

O=C[C@H](CC(=O)O)NC(=O)CN1C(=O)C(NC(=O)c2ccc(O)c(Cl)c2)N=C(c2ccccc2)c2ccccc21 (some centres unmarked) [Example 50]
IC50 [1, 3]: > 8 µM

Cc1cc(C(=O)NC2N=C(c3ccccc3)c3cc(NC=O)ccc3N(CC(=O)N[C@H](C=O)CC(=O)O)C2=O)cc(C)c1O (some centres unmarked) [Example 58]
IC50 ([2]; Table 4, LPS 5.0 ng/ml): > 20 µM

Cc1cc(C(=O)NC2N=C(c3ccccc3)c3cc(N)ccc3N(CC(=O)N[C@H](C=O)CC(=O)O)C2=O)cc(C)c1O (some centres unmarked) [Example 59]
IC50 ([2]; Table 4, LPS 5.0 ng/ml): 9.2 µM

Source: patent US6573259B2, “Inhibitors of interleukin-1β converting enzyme” (Vertex Pharmaceuticals Incorporated, priority 1996, dated 2003)
